For this assay, the target named is T1, Tyrosine-protein phosphatase non-receptor type 1 (Homo sapiens, UniProt P18031).
T1 sequence (P18031 whole entry): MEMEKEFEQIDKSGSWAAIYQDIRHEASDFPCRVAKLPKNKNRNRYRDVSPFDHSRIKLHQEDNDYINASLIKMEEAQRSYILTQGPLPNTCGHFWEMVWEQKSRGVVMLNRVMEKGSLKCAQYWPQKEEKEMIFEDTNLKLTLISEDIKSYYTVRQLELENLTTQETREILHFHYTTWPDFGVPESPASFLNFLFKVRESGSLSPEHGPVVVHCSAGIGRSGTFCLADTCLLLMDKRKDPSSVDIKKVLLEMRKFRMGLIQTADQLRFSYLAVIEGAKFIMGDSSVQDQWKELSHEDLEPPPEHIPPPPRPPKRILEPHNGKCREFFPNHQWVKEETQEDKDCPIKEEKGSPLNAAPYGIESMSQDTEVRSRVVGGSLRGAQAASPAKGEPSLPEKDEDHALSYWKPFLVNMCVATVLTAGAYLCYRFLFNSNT
Nature of the assay: Inhibition of protein tyrosine phosphatase 1B.
As to `BrCc1cc2cc(Br)c(NBr)cc2c(Br)c1Br`, the IC50 (in general, the concentration that inhibits the measured activity by half) was 127 µM.
Regarding `Cc1cc(C)c(Oc2cc(Br)cc(Br)c2Br)c(Br)c1`, the IC50 is 5.78 µM.
For `BrCc1cc(Br)c2cc(NBr)c(Br)cc2c1Br`, half-maximal inhibition (IC50) was put at 118 µM.
The value for `COc1cc(C(=O)c2c(Br)c(Br)c(OC)c(OC)c2Br)c(Br)c(Br)c1OC` was 3.82 µM; that for `BrCc1cc(Br)c2cc(NBr)c(Br)c(Br)c2c1` was 185 µM.

The values are drawn from ChEMBL document CHEMBL1287683, “Highly brominated metabolites from marine red alga Laurencia similis inhibit protein tyrosine phosphatase 1B” (Bioorg Med Chem Lett, 2010).
